Patent US20260363243A1 (priority 2022, published 2026)

System: cucumber downy mildew
Assay: Activity in vivo for inhibiting cucumber downy mildew (potting method, greenhouse)
[1] = 0.078 mg/L, re-screening, Table 2
[2] = 0.312 mg/L, re-screening, Table 2
[3] = 1.25 mg/L, re-screening, Table 2

From the text: The test and investigation method refers to a SOP-SC-1098 cucumber downy mildew potting method in the fungicide section of Standard operation Specification for testing biological Activity of pesticides written by Kang Zhuo and Gu Baogen.

SMILES | Control effect (5 mg/L, Table 1) | Control effect (20 mg/L, Table 1) | Control effect (1.25 mg/L, Table 1) | also measured
O=C(CC1OCCO1)N1CCC(c2nc(C3=NOC(c4c(F)cccc4F)C3)cs2)CC1 (centres unmarked) [II-22] | D (45%≤D<60%) | A (90%≤A≤100%) |  | 
CC/C(=C\OC)C(=O)N1CCC(c2nc(C3=NOC(c4c(F)cccc4F)C3)cs2)CC1 (centres unmarked) [Compound I-8] | A (90%≤A≤100%) | A (90%≤A≤100%) | A (90%≤A≤100%) | 
CC1(CC(=O)N2CCC(c3nc(C4=NOC(c5c(F)cccc5F)C4)cs3)CC2)OCCO1 (centres unmarked) [II-11] | C (60%≤C<75%) | A (90%≤A≤100%) | D (45%≤D<60%) | 
COC(OC)C(C(=O)N1CCC(c2nc(C3=NOC(c4c(F)cccc4F)C3)cs2)CC1)c1ccccc1 (centres unmarked) [II-10] |  | D (45%≤D<60%) |  | 
CCC(C(=O)N1CCC(c2nc(C3=NOC(c4c(F)cccc4F)C3)cs2)CC1)C(OC)OC (centres unmarked) [II-7] | D (45%≤D<60%) | B (75%≤B<90%) |  | 
CCOC(CC(=O)N1CCC(c2nc(C3=NOC(c4c(F)cccc4F)C3)cs2)CC1)OCc1ccccc1 (centres unmarked) [II-5] | D (45%≤D<60%) | A (90%≤A≤100%) |  | 
CCO/C=C/C(=O)N1CCC(c2nc(C3=NOC(c4c(F)cccc4F)C3)cs2)CC1 (centres unmarked) [Compound I-17] | A (90%≤A≤100%) | A (90%≤A≤100%) | A (90%≤A≤100%) | 
CC/C(=N\OC)C(=O)N1CCC(c2nc(C3=NOC(c4c(F)cccc4F)C3)cs2)CC1 (centres unmarked) [Compound I-24] | B (75%≤B<90%) | A (90%≤A≤100%) | C (60%≤C<75%) | 
CCO/N=C(/C(=O)N1CCC(c2nc(C3=NOC(c4c(F)cccc4F)C3)cs2)CC1)c1cc(C)ccc1C (centres unmarked) [Compound I-26] | D (45%≤D<60%) | C (60%≤C<75%) | D (45%≤D<60%) | 
CCCOC(CC(=O)N1CCC(c2nc(C3=NOC(c4c(F)cccc4F)C3)cs2)CC1)OCC (centres unmarked) [II-4] | A (90%≤A≤100%) | A (90%≤A≤100%) | A (90%≤A≤100%) | efficacy compared with dimethomorph and cyazofamid (0.078 mg/L, in words): superior to that of dimethomorph and cyazofamid; efficacy compared with oxathiapiprolin (0.078 mg/L, in words): equivalent to that of oxathiapiprolin at the same concentration; Control effect (0.078 mg/L, re-screening): ≥ 90%; Control effect [1]: A (90%≤A≤100%); Control effect [2]: A (90%≤A≤100%); Control effect [3]: A (90%≤A≤100%); bactericidal activity (re-screening, in words): excellent bactericidal activity
CO/C=C(/C(=O)N1CCC(c2nc(C3=NOC(c4c(F)cccc4F)C3)cs2)CC1)c1ccc(C)cc1 (centres unmarked) [Compound I-13] | B (75%≤B<90%) | A (90%≤A≤100%) |  | 
CCO/N=C(\C#N)C(=O)N1CCC(c2nc(C3=NOC(c4c(F)cccc4F)C3)cs2)CC1 (centres unmarked) [Compound I-28] | B (75%≤B<90%) | A (90%≤A≤100%) |  | 
CO/C=C(/C(=O)N1CCC(c2nc(C3=NOC(c4c(F)cccc4F)C3)cs2)CC1)c1cc(Cl)ccc1Cl (centres unmarked) [Compound I-15] | C (60%≤C<75%) | C (60%≤C<75%) |  | 
CCC/C(=C\OC)C(=O)N1CCC(c2nc(C3=NOC(c4c(F)cccc4F)C3)cs2)CC1 (centres unmarked) [Compound I-9] | A (90%≤A≤100%) | A (90%≤A≤100%) | A (90%≤A≤100%) | 
CO/N=C(/C(=O)N1CCC(c2nc(C3=NOC(c4c(F)cccc4F)C3)cs2)CC1)c1ccc(C)cc1C (centres unmarked) [Compound I-21] |  | D (45%≤D<60%) |  | 
O=C(CC1OCCCCO1)N1CCC(c2nc(C3=NOC(c4c(F)cccc4F)C3)cs2)CC1 (centres unmarked) [II-28] | C (60%≤C<75%) | C (60%≤C<75%) |  | 
CO/N=C(/C(=O)N1CCC(c2nc(C3=NOC(c4c(F)cccc4F)C3)cs2)CC1)c1cc(C)ccc1C (centres unmarked) [Compound I-25] | B (75%≤B<90%) | A (90%≤A≤100%) | C (60%≤C<75%) | 
CO/C=C(\I)C(=O)N1CCC(c2nc(C3=NOC(c4c(F)cccc4F)C3)cs2)CC1 (centres unmarked) [Compound I-5] | B (75%≤B<90%) | B (75%≤B<90%) | C (60%≤C<75%) | 
CO/C=C(\F)C(=O)N1CCC(c2nc(C3=NOC(c4c(F)cccc4F)C3)cs2)CC1 (centres unmarked) [Compound I-2] | B (75%≤B<90%) | A (90%≤A≤100%) | B (75%≤B<90%) | 
CCOC(CC(=O)N1CCC(c2nc(C3=NOC(c4c(F)cccc4F)C3)cs2)CC1)OCC (centres unmarked) [II-2] | A (90%≤A≤100%) | A (90%≤A≤100%) | A (90%≤A≤100%) | Control effect [1]: B (75%≤B<90%); Control effect [2]: A (90%≤A≤100%); Control effect [3]: A (90%≤A≤100%)
